Laboratory results taken from US20260306421A1, “SYSTEMS AND METHODS FOR TRANSDERMAN PATCH DELIVERY” (VITAMAX PATCH WHOLESALER LLC, priority 2022, published 2026).

Assay: Franz cell porcine skin permeation and deposition of cholecalciferol and cholecalciferol phosphate disodium from PG solutions
Assay type: in vitro ADME
Experimental: In order to assess the effect of adding phosphate to vitamin D chemical structure on the penetration of vitamin D through the skin porcine skin permeation studies were performed. Using the data from the pre-formulation studies solutions of cholecalciferol and cholecalciferol phosphate disodium, were prepared. […] The developed HPLC methods were used for quantification.
To study if the addition of the phosphate to cholecalciferol facilitated enhanced transdermal permeation, donor solutions were prepared by adding 2.5 mg/mL of cholecalciferol or cholecalciferol phosphate disodium in 100% PG. […] After 24 h, the receiver fluid was collected and analysed by HPLC methods. […]
Following homogenising solution with epidermis and dermis for 1 min by Ultra Turrax, solutions were filtered through 0.2 μm syringe filters of each bottle was collected and analysed by the HPLC method. The amount of cholecalciferol and cholecalciferol phosphate disodium on the surface of the skin, deposited in the SC, epidermis, dermis, and passed into the receiver fluid was determined. The percentage of mass recovery per cm^2 of skin was calculated, and the drug deposition profile could be obtained.

## cholecalciferol phosphate disodium
p<0.05, ANOVA
  deposition compared with cholecalciferol in each skin layer: significantly higher
Propylene glycol solution
  vitamin D delivered into the skin compared to cholecalciferol: 5 times
